Here are results for one molecule from patent publication US20060171969A1, “Oral pharmaceutical forms of liquid drugs having improved bioavailability” (priority 2002, published 2006).

This data set in a line: In man pharmacokinetics of oral NO-diclofenac sachets (plasma, LC/MS/MS). Particulars: 75, 100 and 150 mg sachets of example 2, oral; 0.25-32 h. Type of data set: in vivo. The method, then: In man evaluation of pharmacokinetic and pharmacodynamic parameters of the oral NO-diclofenac formulation described in example 2 (sachets).
Six healthy fastened patients were administered with 75, 100 and 150 mg NO-Diclofenac sachets formulated as described in example 2.
In order to evaluate the pharmacokinetic parameters, blood samples were taken at 0.25, 0.5, 1, 2, 3, 4, 5, 6, 8, 10, 12, 16, 24 and 32 hours after administration of the pharmaceutical formulation. The active ingredient NO-diclofenac and its metabolites diclofenac and the hydroxyderivative 4-OH-diclofenac were dosed in plasma by a LC/MS/MS method, previously validated. NO-diclofenac was not found in the samples at any dosage. The pharmacokinetic parameters of plasma levels obtained for diclofenac (D) and the 4-hydroxydiclofenac (40H-Diclofenac, 40H-D) are reported in Table 2.

Consider `O=C(Cc1ccccc1Nc1c(Cl)cccc1Cl)OCCCCO[N+](=O)[O-]` [NO-diclofenac, 2-[(2,6-dichlorophenyl)amino]benzeneacetic acid 4-(nitrooxy)butyl ester], for which the “NO-diclofenac (unchanged) in plasma samples” value is given as “not found”.
